What all share (type): cell-based, human
One experiment relates to IL-8. Briefly: LPS-stimulated PBMC cytokine production, multiplex cytokine analysis: IL-8. As to conditions: PBMC 2×10^6 cells/ml, compound 1 hour, then 1 ng/ml LPS 18 hours. As for the experimental part: (§1) Peripheral blood mononuclear cells (PBMCs) were isolated from the blood of healthy human donors by Ficoll cell separation. The PBMCs were seeded at a concentration of 2×10^6 cells/ml and treated for 1 hour at 37° C. with various concentrations of IMiD compounds or control DMSO (0.25%), before stimulation with 1 ng/ml LPS for 18 hours at 37° C.
(§2) Supernatant samples were subjected to multiplex cytokine analysis (Luminex IS100 instrument) to quantify secreted levels of IL-6, IL-8, IL1-beta (IL-1β), GM-CSF, MDC, MIP-1alpha (MIP-1α), MIP-1beta (MIP-1β) and TNF-alpha (TNF-α) (see e.g. FIGS. 7A-C).
(§3) IC50 (half maximal inhibitory concentration) values were calculated to measure the potency of each IMiD compound in inhibiting LPS-stimulated secretion of each cytokine (see Table 25).

In another experiment the test system is GM-CSF. Briefly: LPS-stimulated PBMC cytokine production, multiplex cytokine analysis: GM-CSF. As to conditions: PBMC 2×10^6 cells/ml, compound 1 hour, then 1 ng/ml LPS 18 hours. Here is the method:
(§4) Peripheral blood mononuclear cells (PBMCs) were isolated from the blood of healthy human donors by Ficoll cell separation. […] Supernatant samples were subjected to multiplex cytokine analysis (Luminex IS100 instrument) to quantify secreted levels of IL-6, IL-8, IL1-beta (IL-1β), GM-CSF, MDC, MIP-1alpha (MIP-1α), MIP-1beta (MIP-1β) and TNF-alpha (TNF-α) (see e.g. FIGS. 7A-C). IC50 (half maximal inhibitory concentration) values were calculated to measure the potency of each IMiD compound in inhibiting LPS-stimulated secretion of each cytokine (see Table 25).

In experiment [1] the test system is IL-6, IL-8, IL-1β, GM-CSF, MDC, MIP-1α, MIP-1β and TNF-α. In words: LPS-induced secretion of proinflammatory cytokines from PBMCs (whole multiplex panel, result in words). The settings on record: pre-treatment 1 hour, 1 ng/ml LPS 18 hours. As for the experimental part:
Peripheral blood mononuclear cells (PBMCs) from healthy volunteers were seeded at a concentration of 2×10^6 cells/ml and treated with the indicated concentrations of IMiD compounds or control DMSO (0.25%) for 1 hour, before stimulation with 1 ng/ml LPS. After 18 hours, proinflammatory cytokine levels in the supernatant were assessed by multiplex cytokine analysis.
as §1, §2

The test system of a further experiment is MIP-1α. Briefly: LPS-stimulated PBMC cytokine production, multiplex cytokine analysis: MIP-1α. As to conditions: PBMC 2×10^6 cells/ml, compound 1 hour, then 1 ng/ml LPS 18 hours. Here is the method:
as §1, §2, §3

The next experiment concerns TNF-α. In words: LPS-stimulated PBMC cytokine production, multiplex cytokine analysis: TNF-α. The settings on record: PBMC 2×10^6 cells/ml, compound 1 hour, then 1 ng/ml LPS 18 hours. As for the experimental part: as §1, §2, §3
The next experiment has as its system MDC. Briefly: LPS-stimulated PBMC cytokine production, multiplex cytokine analysis: MDC. As to conditions: PBMC 2×10^6 cells/ml, compound 1 hour, then 1 ng/ml LPS 18 hours. As for the experimental part: as §4
Another experiment has as its system IL-1β. In words: LPS-stimulated PBMC cytokine production, multiplex cytokine analysis: IL-1β. As to conditions: PBMC 2×10^6 cells/ml, compound 1 hour, then 1 ng/ml LPS 18 hours. As for the experimental part:
as §4

The next experiment has as its system IL-6. In words: LPS-stimulated PBMC cytokine production, multiplex cytokine analysis: IL-6. As to conditions: PBMC 2×10^6 cells/ml, compound 1 hour, then 1 ng/ml LPS 18 hours. As for the experimental part: as §4
The test system of a further experiment is MIP-1β. Briefly: LPS-stimulated PBMC cytokine production, multiplex cytokine analysis: MIP-1β. The settings on record: PBMC 2×10^6 cells/ml, compound 1 hour, then 1 ng/ml LPS 18 hours. Here is the method: as §4

SMILES strings stand for the structures.

As a reminder, the IC50 is the point on the concentration scale where inhibition reaches its midpoint. For the compound `O=C1CCC(N2Cc3c(OCc4ccc(CN5CCOCC5)cc4)cccc3C2=O)C(=O)N1` (single isomer, unassigned) [Compound A], the IC50 in the experiment with IL-8 (Homo sapiens) is greater than 10 µM; in the experiment with GM-CSF, 0.0092 µM; in the experiment on MIP-1α it was 0.19 µM; in the experiment on TNF-α, 0.0018 µM; with MDC, 0.0026 µM; in the experiment with IL-1β it was 0.00085 µM. The IC50 was 0.01 µM in the experiment on IL-6 and greater than 10 µM in the experiment with MIP-1β (Homo sapiens). Besides, in experiment [1], the “LPS-induced secretion of proinflammatory cytokines from PBMCs (effect in words)” value (“LPS-induced secretion” below) is listed as “inhibited”.
With `O=C1CCC(N2Cc3c(OCc4ccc(CN5CCOCC5)cc4)cccc3C2=O)C(=O)N1` (single isomer, unassigned) [Compound B], the half-maximal inhibitory concentration (IC50) in the experiment on IL-8 is greater than 10 µM; in the experiment with GM-CSF, 0.039 µM; in the experiment on MIP-1α it was 0.45 µM; with TNF-α it was 0.0095 µM; in the experiment on MDC it was 0.012 µM; with IL-1β it was 0.0062 µM. Further, the figures for the IC50 with IL-6 and in the experiment on MIP-1β were 0.083 µM and greater than 10 µM, respectively. Besides, the “LPS-induced secretion” value in [1] is recorded as “inhibited”.
For `Cc1nc2cccc(N)c2c(=O)n1C1CCC(=O)NC1=O` (stereo not shown) [Avadomide, 3-(5-amino-2-methyl-4-oxo-3,4-dihydroquinazolin-3-yl)piperidine-2,6-dione], the IC50 with IL-8 (Homo sapiens) was greater than 10 µM; in the experiment with MIP-1α (Homo sapiens, PBMC), 0.3 µM; in the experiment with TNF-α (Homo sapiens), 0.034 µM; in the experiment with IL-1β (Homo sapiens) it was 0.054 µM; in the experiment on IL-6 (Homo sapiens), 0.06 µM; with MIP-1β (Homo sapiens), greater than 10 µM. The “LPS-induced secretion” value in experiment [1] is on record as “inhibited”.
In the case of `O=C1CCC(N2C(=O)c3ccccc3C2=O)C(=O)N1` (stereo not shown) [Thalidomide, 2-(2,6-dioxopiperidin-3-yl)-2,3 dihydro-1H-isoindole-1,3-dione], the IC50 is greater than 10 µM in the experiment with IL-8 (Homo sapiens); greater than 10 µM in the experiment on GM-CSF (Homo sapiens, PBMC); greater than 10 µM in the experiment on MIP-1α (Homo sapiens, PBMC); greater than 10 µM in the experiment on TNF-α (Homo sapiens, PBMC); greater than 10 µM in the experiment on MDC (Homo sapiens, PBMC); greater than 10 µM in the experiment on IL-1β (Homo sapiens, PBMC). Besides, the IC50 in the experiment on IL-6 (Homo sapiens, PBMC) was greater than 10 µM; with MIP-1β (Homo sapiens), greater than 10 µM. The “LPS-induced secretion” value in [1] was “minimal to no effect”.
